Entries after “also recorded” stand apart in the source; their conditions may differ.
Tests used:
[1] = tested on: IL-1β; test: Plasma (systemic) IL-1β by ELISA after tibial surgery; type: in vivo; settings: wild type mice, minocycline 40 mg/kg i.p., enrofloxacin 10 mg/kg or IL-1Ra 100 mg/kg given prior to surgery, vs surgery alone
Description: Mice were subjected to an open tibial fracture of the left hind paw with intramedullary fixation in aseptic conditions under general anaesthesia with isoflurane and analgesia with buprenorphineas previously described^18. Other groups of animals were not subjected to any intervention (naïve), or received anesthetic/analgesia alone, or underwent surgery with concurrent administration of minocycline, enrofloxacin, or IL-1 receptor antagonist (IL-1Ra). (For further details please refer to supplemental methods).
IL-6, TNF-α and IL-1β were measured by ELISA^19 (Biosource, CA; Bender Medsystem, CA, respectively). Hippocampal IL-1β was measured by ELISA (Bender Medsystem, CA), as previously described^20. To confirm reliability of dilution linearity and spike recovery cytokine measurement were also performed in mice in which inflammation was induced with i.p. LPS (0111:B4, Invivogen, CA). (For further details please refer to supplemental methods).
Mice were randomly assigned to the following groups: surgery under general anesthesia (S), surgery under general anesthesia plus minocycline (M), surgery under general anesthesia plus enrofloxacin (E), surgery under general anesthesia plus interleukin-1 receptor antagonist (IL-1Ra) (I), surgery in IL1R^−/− mice under general anesthesia (K), general anesthesia without surgery (A), and no intervention (naïve wild-type, or naïve IL1R^−/−). Under aseptic conditions, groups of mice were subjected to an open tibial fracture of the left hind paw with an intramedullary fixation as previously described^2. Briefly, isoflurane (Abbot Laboratories Ltd., Queensborough, Kent, UK) 2.1% in air (1.5 MAC)^3 and buprenorphine (Reckitt Benckiser Healthcare Ltd, Hull, UK) 0.1 mg/kg subcutaneously (sc), were given to provide both surgical anesthesia and extended post-operative analgesia for the surgical intervention and post-surgical recovery. After shaving the overlying skin and disinfecting with chlorhexidine gluconate 0.5% and isopropyl alcohol 70% (PDI, Orangeburg, NY, USA) a fracture of the tibial shaft was created under direct vision. […]

[2] = tested on: IL-1β; test: Plasma IL-1β by ELISA after LPS injection; type: in vivo, mice; settings: LPS 1 mg/kg i.p., IL-1Ra 100 mg/kg s.c. immediately before LPS
Protocol: (§1) Treatment. LPS derived from Escherichia Coli endotoxin ([…], InvivoGen, USA, 1 mg/kg) was dissolved in normal saline and injected intraperitoneally. IL-1Ra (Amgen, Anakinra 100 mg/kg, Nederlands) was given subcutaneously immediately before LPS administration. Dose response curve from LPS or IL-1Ra was obtained from our pilot studies to provoke or to suppress moderate degree of microglia activation respectively. Control animals were injected with equivalent volumes (0.1 ml) of saline. Mice from each treatment group were randomly assigned for assessment of either cytokine response or cognitive behavior, in order to obviate possible confounding effects of behavioral testing on inflammatory markers.
Plasma cytokine measurement. Blood was sampled transcardially after thoracotomy under terminal anesthesia 30 minutes, 2, 6, 12 hours and 1, 3, 7 days after experiments in the different cohorts and centrifuged at 3,600 rpm for 7 minutes at 4° C. Blood samples taken from animals without any interventions severed as controls. Plasma samples were stored at −20° C. for further analysis. Plasma cytokine and HMGB-1 were measured using commercially available ELISA kits from Biosource, CA and Shino-test Corporation, Japan, respectively. The sensitivities of the assays were <3 pg/ml for TNFα, <7 pg/ml for IL-1β, <3 pg/ml for IL-6 and 1 ng/ml for HMGB-1.

[3] = tested on: microglia; test: Hippocampal microglia anti-CD11b immunohistochemistry grading after LPS injection; type: in vivo, mice; settings: LPS 1 mg/kg i.p.; IL-1Ra pre-treatment; days 1 and 3
Protocol: as §1
Immunohistochemistry (IHC). Mice were euthanized and perfused transcardially with ice-cold heparinized 0.1M phosphate buffer solution (PBS) followed by 4% paraformaldehyde in 0.1M PBS at pH 7.4 (VWR International, UK). The brains were harvested and post-fixed in 4% paraformaldehyde in 0.1M PBS at 4° C. and cryoprotected in 0.1M PBS solutions containing 15% sucrose for 24 hours (VWR International, UK) and then 30% sucrose for a further 48 hours. Brain tissue was freeze-mounted in OCT embedding medium (VWR International, UK). The 25 μm thick coronal sections of the hippocampus were cut sequentially in groups of 6 and mounted on Superfrost® plus slides (Menzel-Glaser, Germany). […]

## IL-1Ra: IL-1 receptor antagonist (Amgen, Anakinra)
[1]
  Plasma IL-1β after surgery, effect of treatment: did not increase circulating IL-1β; also recorded: Surgery did not induce a significant increase of IL-1β at 24 h
[2]; 6 hours
  Plasma IL-1β at 6 hours after LPS with IL-1Ra: 32.7 ± 5.45 pg/mL
[2]; 24 hours
  Plasma IL-1β at 24 hours after LPS with IL-1Ra: 6.2 ± 1.03 pg/mL
[3]
  Reactive microglia in hippocampus after LPS, effect of IL-1Ra: Reduction in the number of reactive microglia was observed; also recorded: attenuated by IL-1Ra treatment; also recorded: effectively reduced the number of reactive microglia at days 1 and 3
